According to US6689381B2, “Liposomal benzoquinazoline thymidylate synthase inhibitor formulations” (OSI Pharmaceuticals, Inc., priority 2000, dated 2004):

System: human colon tumor xenograft model (HCT-8, thymidine kinase (TK)-/-)
Assay: HCT-8 xenograft, NX1843 dose schedule study and combinations with 5-FU, NX211 and GW1843 (Table 27)
Format: in vivo, nude mice
Description: Female Nu/Nu mice (18-24 g, 10-14 weeks old) were obtained from Harlan Sprague Dawley, and housed in microisolator filtration racks and maintained with filtered acidified water and sterile lab chow ad libitum. […] Animals were allowed to acclimate to their new environment for 1 week prior to tumor cell implantation. Tumors were established by injecting harvested tumor cells in a single subcutaneous site on the flank of the mice in the axillary region. The tumors were grown until approximately 200+/−50 mm^3 in size. The animals were then sorted according to body weight, grouped four animals/cage, and tattooed on the tail for permanent identification. Groups consisting of 8 tumor-bearing mice each were administered weekly doses of experimental agents by IV bolus injection through the tail vein. Tumor volumes were determined with vernier caliper measurements taken at right angles using the formula, (L×W^2/2) and body weights, were collected twice weekly. Data was plotted as % change in body weight vs. time in days, and % tumor volume increase vs. days.
T=(mean) time in days for treated group to reach cutoff size (2 grams)
C=(mean) time in days for control group to reach cutoff size (2 grams)
WC is the mean tumor weight of control group at time x
Wt is mean tumor weight of treated group at time x
% Regression=100 (Wo−Wi)/Wo; where Wo is the mean tumor weight for treated group at the initiation of treatment and Wi=the mean tumor weight for that group at time some time x after treatment.
In addition to these dose groups the free drug was dosed at 100 mg/kg on days 1-5, and repeated for a second week.

## O=c1[nH]cc(F)c(=O)[nH]1 [Lot 5-FU, 5-fluorourcil, reference compound]
100 mg/kg, QD1, 8
  % TGI: 72%
  Cures: 0
  LCK: 1.5
100 mg/kg, QD1, 8, day 22
  % Regression day 22: 0%
iv, NX1843 25 mg/kg d1,8, 15 mg/kg QD(1,3,5)×2 or 7.5 mg/kg QD(1-5)×2, GW1843 100 mg/kg d1-5 ×2, 5FU 100 mg/kg d1,8, NX211 6 mg/kg d1,8, combinations at same doses
  log cell kill (LCK): 1.5
